From patent US12060388B2, “Cell-penetrating peptides and methods of use thereof” (priority 2018, dated 2024)

Assays:
Format in all cases: cell-based
HPV16 pseudovirus (PsV) = assay: Peptide inhibition of HPV16 PsV infection of HeLa-S3 cells, flow cytometry for HcRed
Source text: FIG. 18A (top) depicts sequences of L2 peptides. […] Amino acid substitutions in the CPP or RBS mutant peptides are shown in orange and blue, respectively. Bottom: RBS and flanking sequences of indicated HPV L2 proteins or DMT1-II. FIG. 18B depicts an inhibitory dose-response curve for P16/16 peptide. 5×10^4 HeLa-S3 in 24-well plates were pretreated with various concentrations of P16/16 for one hour prior to infection with HPV pseudovirus (PsV) at multiplicity of infection (MOI) of 1. Peptide was left in the medium for the duration of the experiment. Cells were assessed by flow cytometry to determine the fraction of cells expressing reporter protein HcRed at 48 hours post-infection (h.p.i.). […] FIG. 18C depicts 5×10^4 HeLa-S3 in 24-well plates were pretreated with 14 μM of the indicated peptide for one hour, followed by infection with HPV PSV at MOI of one. Peptides were left in the medium for the duration of the experiment. As a control, cells were incubated with the solution used to dissolve peptide. Forty-eight h.p.i., cells were assessed by flow cytometry to determine fraction of cells expressing reporter protein HcRed. […] For the comparison of P16/16 to P16/6A, P16/3R, and PDM/16 for HPV16 PsV, **, p<0.01; ***, p<0.001. […] FIG. 18D depicts inhibition of HPV infection of HaCaT cells. HaCaT keratinocytes were infected at MOI of 1 with HPV16 PsV in the presence and absence of 14 μM P16/16, and infectivity was assessed 48 h.p.i. by flow cytometry for HcRed fluorescence. FIG. 18E depicts inhibition of authentic HPV16. HeLa cells were infected with HPV16 harvested from organotypic cultures of human keratinocytes or with HPV16 PsV in the presence (grey bars) or absence (black bars) of P16/16. Successful infection by HPV16 and HPV16 PsV was assessed by quantitative reverse transcription-PCR (qRT-PCR) for expression of HPV early region and HcRed mRNA, respectively, and normalized to infection by the cognate virus in the absence of peptide. Background signal determined with non-cognate primers was <0.01%.
To assess the effect of peptides on viral infection, 5×104 HeLa-S3 in 24-well plates were pretreated with peptides for one hour, followed by infection with wild-type HPV PsV at 37° C. at MOI of ˜1 or with mutant PsV containing an equivalent number of encapsidated reporter plasmids. Peptides were left in the medium for the duration of the experiment unless otherwise indicated. As a control, cells were incubated with the solution used to dissolve peptide. Cells were assessed by flow cytometry on a Stratedigm-13 flow cytometer to determine reporter protein expression at 48 h.p.i. unless otherwise indicated. In some experiments, peptides were added at various times after infection and were left in the medium for the duration of the experiment.

HPV18 PsV = assay: Peptide inhibition of HPV18 PsV infection of HeLa-S3 cells, flow cytometry for HcRed; details: 14 μM peptide, MOI of one, 48 h.p.i.
Source text: FIG. 18A (top) depicts sequences of L2 peptides. […] Amino acid substitutions in the CPP or RBS mutant peptides are shown in orange and blue, respectively. Bottom: RBS and flanking sequences of indicated HPV L2 proteins or DMT1-II. FIG. 18B depicts an inhibitory dose-response curve for P16/16 peptide. 5×10^4 HeLa-S3 in 24-well plates were pretreated with various concentrations of P16/16 for one hour prior to infection with HPV pseudovirus (PsV) at multiplicity of infection (MOI) of 1. Peptide was left in the medium for the duration of the experiment. Cells were assessed by flow cytometry to determine the fraction of cells expressing reporter protein HcRed at 48 hours post-infection (h.p.i.). […] Forty-eight h.p.i., cells were assessed by flow cytometry to determine fraction of cells expressing reporter protein HcRed. […] HaCaT keratinocytes were infected at MOI of 1 with HPV16 PsV in the presence and absence of 14 μM P16/16, and infectivity was assessed 48 h.p.i. by flow cytometry for HcRed fluorescence. […] Successful infection by HPV16 and HPV16 PsV was assessed by quantitative reverse transcription-PCR (qRT-PCR) for expression of HPV early region and HcRed mRNA, respectively, and normalized to infection by the cognate virus in the absence of peptide. Background signal determined with non-cognate primers was <0.01%. […]

HPV16 PsV = assay: Inhibition of HPV16 PsV infection of HaCaT keratinocytes; details: 14 μM, MOI of 1, 48 h.p.i.
Source text: FIG. 18A (top) depicts sequences of L2 peptides. […] Amino acid substitutions in the CPP or RBS mutant peptides are shown in orange and blue, respectively. Bottom: RBS and flanking sequences of indicated HPV L2 proteins or DMT1-II. FIG. 18B depicts an inhibitory dose-response curve for P16/16 peptide. 5×10^4 HeLa-S3 in 24-well plates were pretreated with various concentrations of P16/16 for one hour prior to infection with HPV pseudovirus (PsV) at multiplicity of infection (MOI) of 1. Peptide was left in the medium for the duration of the experiment. Cells were assessed by flow cytometry to determine the fraction of cells expressing reporter protein HcRed at 48 hours post-infection (h.p.i.). […] Forty-eight h.p.i., cells were assessed by flow cytometry to determine fraction of cells expressing reporter protein HcRed. […] HaCaT keratinocytes were infected at MOI of 1 with HPV16 PsV in the presence and absence of 14 μM P16/16, and infectivity was assessed 48 h.p.i. by flow cytometry for HcRed fluorescence. […] Successful infection by HPV16 and HPV16 PsV was assessed by quantitative reverse transcription-PCR (qRT-PCR) for expression of HPV early region and HcRed mRNA, respectively, and normalized to infection by the cognate virus in the absence of peptide. Background signal determined with non-cognate primers was <0.01%.

authentic HPV16 = assay: Inhibition of authentic HPV16 in HeLa cells, qRT-PCR for viral mRNA; details: 14 μM, HPV16 from organotypic raft cultures, qRT-PCR 48 h.p.i.
Method: To measure the inhibition of infection by authentic HPV16, HeLa cells were infected with 5 μL raft-derived HPV16 (obtained from Craig Meyers, Hershey Medical Center) or with HPV16 PsV in the presence and absence of 14 μM P16/16, and total RNA was isolated 48 h.p.i. by using the RNeasy kit following the manufacturer's instructions. RNA was reverse-transcribed into cDNA by iScript cDNA Synthesis kit. The cDNA was quantified in triplicate by using SYBR Green Supermix real-time PCR detection system and primers for HPV16 E7 or HcRed. Actin mRNA were used for normalization.

TGN46 / HPV16 L1 = assay: Proximity ligation assay for L1 and TGN46 in peptide-treated infected cells; details: 14 μM, MOI of 200, 16 h.p.i.
Method: HeLa-S3 cells grown on glass coverslips for 16 hours were incubated for one hour with or without 14 μM P16/16, followed by mock-infection or infection with HPV16 PSV at MOI of 200. 8 and 16 h.p.i., cells were processed for PLA with anti-L1 antibody and an antibody recognizing EEA1 (FIG. 20A) or TGN46 (FIG. 20B). PLA was performed as in FIG. 19B. The PLA signal for EEA1/L1 was normalized to that of cells infected with HPV16 PsV in the absence of peptide at 8 h.p.i., while the TGN46/L1 signal was normalized to untreated cells at 16 h.p.i.
For the proximity ligation assay, after an hour incubation with peptides, HeLa-S3 cells were infected with wild-type PSV at MOI of 200 or mutant PsV containing the same number of reporter plasmid genomes. Infected cells were fixed at 8 or 16 h.p.i., permeabilized, and incubated with 1:100 dilutions of anti-L1 antibody and an antibody recognizing EEA1, TGN46, or VPS35. […] The nuclei were stained by using Abcam fluorescence mounting medium with DAPI and images were acquired by a Leica SP5 inverted fluorescence microscope. […] The images were processed by Fiji and quantitatively analyzed by BlobFinder software to measure total fluorescence intensity in each sample. The average fluorescence intensity per cell in each sample was normalized to the control sample as indicated in each experiment. […]

CC[C@H](C)[C@H](NC(=O)[C@@H](NC(=O)[C@H](Cc1ccc(O)cc1)NC(=O)[C@H](CCC(N)=O)NC(=O)[C@@H]1CCCN1C(=O)[C@H](CO)NC(=O)[C@@H](N)CS)[C@@H](C)O)C(=O)N[C@H](C(=O)N[C@@H](C)C(=O)N[C@@H](CC(=O)O)C(=O)N[C@@H](C)C(=O)NCC(=O)N[C@@H](CC(=O)O)C(=O)N[C@@H](Cc1ccccc1)C(=O)N[C@@H](Cc1ccc(O)cc1)C(=O)N[C@@H](CC(C)C)C(=O)N[C@@H](Cc1c[nH]cn1)C(=O)N1CCC[C@H]1C(=O)N[C@@H](CO)C(=O)N[C@@H](Cc1ccc(O)cc1)C(=O)N[C@@H](Cc1ccc(O)cc1)C(=O)N[C@@H](CCSC)C(=O)N[C@@H](CC(C)C)C(=O)N[C@@H](CCCNC(=N)N)C(=O)N[C@@H](CCCCN)C(=O)N[C@@H](CCCNC(=N)N)C(=O)N[C@@H](CCCNC(=N)N)C(=O)N[C@@H](CCCCN)C(=O)N[C@@H](CCCNC(=N)N)C(=O)O)[C@@H](C)CC [P16/16]
time of peptide addition for effective inhibition (HPV16 pseudovirus (PsV); 14 μM peptide added at time of infection or at indicated h.p.i.): needed to be added during the first few hours of infection | persistence of inhibition (HPV16 pseudovirus (PsV); 14 μM peptide left in medium, 48, 72, or 96 h.p.i.): at least 96 h.p.i. | inhibition of HPV16 PsV infection (HPV16 pseudovirus (PsV); 14 μM peptide, MOI of 1, 48 h.p.i.): statistically significant (p<0.01) inhibition | infection after removal of peptide (HPV16 pseudovirus (PsV); peptide removed from the medium after 24 hours): infection was not restored over the next three days | reduction in infection, dose-response (HPV16 pseudovirus (PsV); various concentrations of peptide, MOI of 1, 48 h.p.i.): dose-dependent reduction in infection | inhibition of HPV18 PsV infection (HPV18 PsV): potently inhibited infection | inhibition of HPV16 PsV infection in HaCaT (HPV16 PsV): inhibited infection | inhibition of authentic HPV16 (authentic HPV16): inhibited | TGN46/L1 PLA at 16 h.p.i. (TGN46 / HPV16 L1): inhibited the arrival of HPV in the TGN
